From patent publication US20100068743A1, “Method for predicting response of cancer patient to anticancer drug treatment” (John Wayne Cancer Institute and Sysmex Corporation, priority 2008, published 2010)

Legend:
[1] = tested on: malignant tumors of breast cancer patients; experiment: Pathological complete response (pCR) attained by chemotherapy in breast cancer patients; assay type: in vivo, human; conditions: individual breast cancer patient, after chemotherapy regimen; 1 = pathological complete response
Procedure: For breast cancer patients listed in Table 3 shown below, CDK1 expression level, CDK1 active value, CDK2 expression level, CDK2 active value of malignant tumors collected by needle biopsy before receiving chemotherapy are measured, and CDK1 specific activity and CDK2 specific activity are obtained. Further for each of patients shown in Table 3, whether or not pathological complete response (pCR) has been attained by the chemotherapy is shown in Table 3. In the column “pCR” in Table 3, “1” denotes pathological complete response.

[2] = tested on: tumor tissue of breast cancer patients; experiment: Reduction rate of tumor after chemotherapy (tumor size before and after) in breast cancer patients; assay type: in vivo, human; conditions: individual breast cancer patient, after receiving the chemotherapy prescribed in the regimen
Procedure: Next, CDK1 expression level, CDK1 active value, CDK2 expression level, CDK2 active value of malignant tumors collected by needle biopsy from breast cancer patients before receiving chemotherapy are measured, and CDK1 specific activity and CDK2 specific activity are obtained. Meanwhile, the reduction rate of tumor is obtained by measuring a size of tumor tissue of each patient before and after the chemotherapy. In Table 1, CDK1 SA denotes CDK1 specific activity, CDK2SA denotes CDK2 specific activity, […] denotes cell cycle profile score, and reduction rate of tumor denotes reduction rate of tumors after receiving the chemotherapy prescribed in the regimen. In the column of the regimen, “wT” means paclitaxel, “FEC” means fluorouracil, cyclophosphamide, epirubicin, “CE” means cyclophosphamide, epirubicin, “Doce” means docetaxel, “ZL” means zoladex, “TM” means tamoxifen, and “UFT” means uracil, tegafur.

Q: What does the source list for `CC(=O)O[C@H]1C(=O)[C@@]2(C)[C@H]([C@H](OC(=O)c3ccccc3)[C@]3(O)C[C@H](OC(=O)[C@H](O)[C@@H](NC(=O)c4ccccc4)c4ccccc4)C(C)=C1C3(C)C)[C@]1(OC(C)=O)CO[C@@H]1C[C@@H]2O` [wT, paclitaxel]?
A: pCR [1]: 0; Reduction rate of tumor [2]: 70%
